# Laboratory results taken from US20160297851A1, “BROAD SPECTRUM […]” (priority 2012, published 2016).
# Like-named read-outs stand apart in the source and are kept apart here.
# Legend:
# Lactococcus lactis = experiment: microbe, parasite or virus in culture; format: cell-based; details: several values = different isolates/subspecies
# Helicobacter pylori SS1 = experiment: microbe, parasite or virus in culture; format: cell-based; details: amount for a 1000-fold decrease in viable cells
# human HeLa 229 cells = details: none observed up to the highest concentration examined
# wild type E. coli MG1655 = experiment: microbe, parasite or virus in culture; format: cell-based, Escherichia coli
# wild type S. aureus 8325 = experiment: microbe, parasite or virus in culture; format: cell-based, Staphylococcus aureus
# [1] = system: E. coli and P. aeruginosa serine mutants; experiment: MIC after permeabilizing with polymyxin B nonapeptide; format: cell-based
# [2] = molecular target: P84S variant of truncated E. coli SPase (Escherichia coli, UniProt P00803, P84S); experiment: Equilibrium binding, arylomycin fluorescence; details: micelles; average of three independent experiments
# Chain of P84S variant of truncated E. coli SPase (P00803 76-324, looked up, stated change not applied): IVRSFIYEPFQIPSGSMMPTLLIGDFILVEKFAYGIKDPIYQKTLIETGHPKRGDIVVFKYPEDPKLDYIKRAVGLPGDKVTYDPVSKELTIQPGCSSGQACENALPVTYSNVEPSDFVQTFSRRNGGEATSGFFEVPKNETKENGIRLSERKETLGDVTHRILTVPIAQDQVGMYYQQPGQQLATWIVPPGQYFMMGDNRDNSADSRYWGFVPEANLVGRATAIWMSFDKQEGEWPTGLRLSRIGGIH
structure (smiles),measurement,setting,value
"CCCCCCCCCCCCCCCC(=O)N(C)[C@H](CO)C(=O)N[C@H](C)C(=O)NCC(=O)N(C)[C@@H]1C(=O)N[C@@H](C)C(=O)N[C@H](C(=O)O)Cc2ccc(O)c(c2)-c2cc1ccc2O [Arylomycin C16, arylomycin C16]",MIC,Lactococcus lactis,16 µg/mL
same,MIC,"Helicobacter pylori SS1; Helicobacter pylori, SS1, read-out: MIC",4 µg/mL
same,MIC,Helicobacter pylori SS1,4 µg/mL
same,concentration with adverse effects on the human cells,human HeLa 229 cells,> 20000 ng/mL
same,MIC,"wild type E. coli MG1655; Escherichia coli, MG1655, Resistant strain (wild type), read-out: MIC",> 64 µg/mL
same,MIC,wild type E. coli MG1655; Resistant strain (wild type),>128 µg/mL
same,activity in words,wild type S. aureus 8325,no activity
same,MIC,"wild type S. aureus 8325; Staphylococcus aureus, Resistant strain (wild type), read-out: MIC",> 64 µg/mL
same,fold decrease of MIC on permeabilization,[1],≤ 4 fold
same,Kd,[2],39 ± 15 nM
